Starred links: 1 amine or outer side, 2 acyl side, 3 side chain; linkers in the order of their positions; H or OH if unused. Positions of bridges follow the written chain, without caps; N, C: chain ends. Non-standard residues stand in square brackets, D forms with d. Residues, ends and D or L forms follow the SMILES beside them. *: point of attachment. hPhe(3-Cl-4-CF3) = N[C@@H](CCc1ccc(C(F)(F)F)c(Cl)c1)C(=O)O; hPhe(3-F,4-CF3) = N[C@@H](CCc1ccc(C(F)(F)F)c(F)c1)C(=O)O; X57 = N#Cc1cc(CC[C@H](N[*:1])C(=O)[*:2])ccc1C(F)(F)F; NMePhe(4-Cl) = CN[C@@H](Cc1ccc(Cl)cc1)C(=O)O; NMePhe(4-Me) = CN[C@@H](Cc1ccc(C)cc1)C(=O)O; NMePhe(4-F) = CN[C@@H](Cc1ccc(F)cc1)C(=O)O; NMedβ3hAla = C[C@H](CC(=O)[*:2])N(C)[*:1]; NMeGly(cPent) = CN[C@H](C(=O)O)C1CCCC1; NMeCha = CN[C@@H](CC1CCCCC1)C(=O)O; NMeGly(cPr) = CN[C@H](C(=O)O)C1CC1; Hyp = O=C(O)[C@@H]1C[C@@H](O)CN1; NEtLeu = CCN[C@@H](CC(C)C)C(=O)O; NMeChg = CN[C@H](C(=O)O)C1CCCCC1; NMeI = CC[C@H](C)[C@H](NC)C(=O)O; NMeD = CN[C@@H](CC(=O)O)C(=O)O; NMeL = CN[C@@H](CC(C)C)C(=O)O; NMehSer = CN[C@@H](CCO)C(=O)O; NMeV = CN[C@H](C(=O)O)C(C)C; d(β3hA) = C[C@@H](N)CC(=O)O; Azetidin(1-yl) = C1CN(*)C1; NMeS = CN[C@@H](CO)C(=O)O; Morpholide = C1CN(*)CCO1; NMeA = CN[C@@H](C)C(=O)O; NMeAib = CNC(C)(C)C(=O)O; Piperidide = C1CCN(*)CC1; Ac5c = NC1(C(=O)O)CCCC1; Aze = O=C(O)[C@@H]1CCN1; Isopentyl = CC(C)CC*; Meb = Cc1ccc(C*)cc1; Sar = CNCC(=O)O; Propyl = CCC*
system: Human pancreatic cancer cell line AsPC-1; experiment: Measurement of AsPC-1 cell growth inhibition (AsPC-1 CGI); type: cell-based; settings: 96 h
Outline: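 AsPC-1 cells in 15% FBS RPMI-1640 were exposed to test compound for 96 hours at 37° C, with CellTiter-Glo as endpoint.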

SMILES | IC50 [µM]
CC[C@H](C)[C@@H]1NC(=O)[C@H](CC(C)C)N(C)C(=O)C[C@@H](C(=O)N2CCCCC2)N(C)C(=O)[C@H]([C@@H](C)CC)N(C)C(=O)C2(CCCC2)NC(=O)[C@@H]2CCCN2C(=O)[C@H](CCc2ccc(C(F)(F)F)c(Cl)c2)NC(=O)CN(C)C(=O)[C@H](Cc2ccc(F)cc2)N(C)C(=O)[C@@H]2CCN2C(=O)[C@H](C)N(C)C1=O [Compound 1060] ([NMeL]I[NMeA][Aze][NMePhe(4-F)][Sar][hPhe(3-Cl-4-CF3)]P[Ac5c][NMeI][NMeD]-Piperidide; lactam N-11) | 0.02 to 0.05
CC[C@H](C)[C@@H]1NC(=O)[C@H](CC(C)C)N(C)C(=O)C[C@@H](C)N(C)C(=O)[C@H](C2CCCC2)N(C)C(=O)C2(CCCC2)NC(=O)[C@@H]2CCCN2C(=O)[C@H](CCc2ccc(C(F)(F)F)c(Cl)c2)NC(=O)CN(C)C(=O)[C@H](C2CCCC2)N(C)C(=O)[C@@H]2CCN2C(=O)[C@H](C)N(C)C1=O [Compound 1046] (cyclo([Ac5c][NMeGly(cPent)][NMedβ3hAla][NMeL]I[NMeA][Aze][NMeGly(cPent)][Sar][hPhe(3-Cl-4-CF3)]P)) | 0.02 to 0.05
CC[C@H](C)[C@@H]1NC(=O)[C@H](CC(C)C)N(C)C(=O)C[C@@H](C(=O)N2CCCCC2)N(C)C(=O)[C@H](C2CCCC2)N(C)C(=O)C2(CCCC2)NC(=O)[C@@H]2CCCN2C(=O)[C@H](CCc2ccc(C(F)(F)F)c(F)c2)NC(=O)CN(C)C(=O)[C@H](Cc2ccc(C)cc2)N(C)C(=O)[C@@H]2CCN2C(=O)[C@H](C)N(C)C1=O [Compound 1008] ([NMeL]I[NMeA][Aze][NMePhe(4-Me)][Sar][hPhe(3-F,4-CF3)]P[Ac5c][NMeGly(cPent)][NMeD]-Piperidide; lactam N-11) | 0.02 to 0.05
CCCOC[C@H]1C(=O)N(C)CC(=O)N[C@@H](CCc2ccc(C(F)(F)F)c(Cl)c2)C(=O)N2CCC[C@H]2C(=O)NC2(CCCC2)C(=O)N(C)[C@@H](C2CCCC2)C(=O)N(C)[C@H](C)CC(=O)N(C)[C@@H](CC(C)C)C(=O)N[C@@H]([C@@H](C)CC)C(=O)N(C)[C@@H](C)C(=O)N2CC[C@H]2C(=O)N1C [Compound 366] (cyclo([Ac5c][NMeGly(cPent)][NMedβ3hAla][NMeL]I[NMeA][Aze][NMeS](Propyl)[Sar][hPhe(3-Cl-4-CF3)]P)) | 0.02 to 0.05
CC[C@H](C)[C@@H]1NC(=O)[C@H](C)N(C)C(=O)C[C@@H](C)N(C)C(=O)[C@H](C(C)C)N(C)C(=O)C(C)(C)N(C)C(=O)[C@@H]2CCCN2C(=O)[C@H](CCc2ccc(C(F)(F)F)c(Cl)c2)NC(=O)CN(C)C(=O)[C@H](CC2CCCCC2)N(C)C(=O)[C@@H]2CCN2C(=O)[C@H](C)N(C)C1=O [Compound 341] (cyclo([Aze][NMeCha][Sar][hPhe(3-Cl-4-CF3)]P[NMeAib][NMeV][NMedβ3hAla][NMeA]I[NMeA])) | 0.1 to 0.5
CC[C@H](C)[C@@H]1NC(=O)[C@H](CC(C)C)N(CC)C(=O)C[C@@H](C(=O)N2CCC2)N(C)C(=O)[C@H](C2CCCC2)N(C)C(=O)C2(CCCC2)NC(=O)[C@@H]2CCCN2C(=O)[C@H](CCc2ccc(C(F)(F)F)c(Cl)c2)NC(=O)CN(C)C(=O)[C@H](CC2CCCCC2)N(C)C(=O)[C@@H]2CCN2C(=O)[C@H](C)N(C)C1=O [Compound 1198] ([NEtLeu]I[NMeA][Aze][NMeCha][Sar][hPhe(3-Cl-4-CF3)]P[Ac5c][NMeGly(cPent)][NMeD]-{Azetidin(1-yl)}; lactam N-11) | 0.02 to 0.05
CC[C@H](C)[C@@H]1NC(=O)[C@H](CC(C)C)N(C)C(=O)C[C@@H](C(=O)N2CCCCC2)N(C)C(=O)[C@H](C2CCCCC2)N(C)C(=O)C2(CCCC2)NC(=O)[C@@H]2C[C@@H](O)CN2C(=O)[C@H](CCc2ccc(C(F)(F)F)c(Cl)c2)NC(=O)CN(C)C(=O)[C@H](CC2CCCCC2)N(C)C(=O)CN(C)C(=O)CN(C)C1=O [Compound 1376, (3S,9S,18S,21S,25S,28S,34S,36R)-3-[2-[3-chloro-4-(trifluoromethyl)phenyl]ethyl]-28-cyclohexyl-9-(cyclohexylmethyl)-36-hydroxy-21-isobutyl-7,10,13,16,22,26,29-heptamethyl-18-[(1S)-1-methylpropyl]-25-(piperidine-1-carbonyl)spiro[1,4,7,10,13,16,19,22,26,29,32-undecazabicyclo[32.3.0]heptatriacontane-31,1′-cyclopentane]-2,5,8,11,14,17,20,23,27,30,33-undecone] ([NMeL]I[Sar][Sar][NMeCha][Sar][hPhe(3-Cl-4-CF3)][Hyp][Ac5c][NMeChg][NMeD]-Piperidide; lactam N-11) | 0.1 to 0.5
CC[C@H](C)[C@@H]1NC(=O)[C@H](CC(C)C)N(C)C(=O)C[C@@H](C(=O)N2CCCCC2)N(C)C(=O)[C@H](C2CCCC2)N(C)C(=O)C2(CCCC2)NC(=O)[C@@H]2CCCN2C(=O)[C@H](CCc2ccc(C(F)(F)F)c(C#N)c2)NC(=O)CN(C)C(=O)[C@H](CC2CCCCC2)N(C)C(=O)[C@@H]2CCN2C(=O)[C@H](C)N(C)C1=O [Compound 2072] ([NMeL]I[NMeA][Aze][NMeCha][Sar][X57]P[Ac5c][NMeGly(cPent)][NMeD]-Piperidide; lactam N-11) | 0.02 to 0.05
CC[C@H](C)[C@@H]1NC(=O)[C@H](C2CC2)N(C)C(=O)C[C@@H](C(=O)N2CCCCC2)N(C)C(=O)[C@H](C(C)C)N(C)C(=O)C2(CCCC2)NC(=O)[C@@H]2CCCN2C(=O)[C@H](CCc2ccc(C(F)(F)F)c(Cl)c2)NC(=O)CN(C)C(=O)[C@H](CC2CCCCC2)N(C)C(=O)[C@@H]2CCN2C(=O)[C@H](C)N(C)C1=O [Compound 100] ([NMeGly(cPr)]I[NMeA][Aze][NMeCha][Sar][hPhe(3-Cl-4-CF3)]P[Ac5c][NMeV][NMeD]-Piperidide; lactam N-11) | 0.1 to 0.5
CC[C@H](C)[C@@H]1NC(=O)[C@H](CC(C)C)N(C)C(=O)C[C@@H](C)NC(=O)[C@H](C(C)C)N(C)C(=O)C2(CCCC2)NC(=O)[C@@H]2CCCN2C(=O)[C@H](CCc2ccc(C(F)(F)F)c(Cl)c2)NC(=O)CN(C)C(=O)[C@H](Cc2ccc(Cl)cc2)N(C)C(=O)[C@@H]2CCN2C(=O)CN(C)C1=O [Compound 207] (cyclo([Ac5c][NMeV][d(β3hA)][NMeL]I[Sar][Aze][NMePhe(4-Cl)][Sar][hPhe(3-Cl-4-CF3)]P)) | 0.1 to 0.5
CC[C@H](C)[C@@H]1NC(=O)[C@H](CC(C)C)N(C)C(=O)C[C@@H](C(=O)N2CCCCC2)N(C)C(=O)[C@H](CC(C)C)N(C)C(=O)C2(CCCC2)NC(=O)[C@@H]2C[C@@H](OCc3ccc(C)cc3)CN2C(=O)[C@H](CCc2ccc(C(F)(F)F)c(F)c2)NC(=O)CN(C)C(=O)[C@H](CC2CCCCC2)N(C)C(=O)CN(C)C(=O)CN(C)C1=O [Compound 2130] ([NMeL]I[Sar][Sar][NMeCha][Sar][hPhe(3-F,4-CF3)][Hyp](Meb)[Ac5c][NMeL][NMeD]-Piperidide; lactam N-11) | > 0.5
CC(C)C[C@H]1C(=O)N[C@@H](C(C)C)C(=O)N(C)[C@@H](C)C(=O)N2CC[C@H]2C(=O)N(C)[C@@H](CC2CCCCC2)C(=O)N(C)CC(=O)N[C@@H](CCc2ccc(C(F)(F)F)c(Cl)c2)C(=O)N2CCC[C@H]2C(=O)NC2(CCCC2)C(=O)N(C)[C@@H](C(C)C)C(=O)N(C)[C@H](C(=O)N2CCCCC2)CC(=O)N1C [Compound 1791] ([NMeL]V[NMeA][Aze][NMeCha][Sar][hPhe(3-Cl-4-CF3)]P[Ac5c][NMeV][NMeD]-Piperidide; lactam N-11) | 0.1 to 0.5
CC[C@H](C)[C@@H]1NC(=O)[C@H](CC(C)C)N(C)C(=O)C[C@@H](C(=O)N2CCCCC2)N(C)C(=O)[C@H]([C@@H](C)CC)N(C)C(=O)C2(CCCC2)NC(=O)[C@@H]2CCCN2C(=O)[C@H](CCc2ccc(C(F)(F)F)c(Cl)c2)NC(=O)CN(C)C(=O)[C@H](CC2CCCCC2)N(C)C(=O)[C@@H]2CCN2C(=O)[C@H](C)N(C)C1=O [Compound 1722] ([NMeL]I[NMeA][Aze][NMeCha][Sar][hPhe(3-Cl-4-CF3)]P[Ac5c][NMeI][NMeD]-Piperidide; lactam N-11) | 0.02 to 0.05
CC[C@H](C)[C@@H]1NC(=O)[C@H](CC(C)C)N(C)C(=O)C[C@@H](C(=O)N2CCCCC2)N(C)C(=O)[C@H](C(C)C)N(C)C(=O)C2(CCCC2)NC(=O)[C@@H]2CCCN2C(=O)[C@H](CCc2ccc(C(F)(F)F)c(Cl)c2)NC(=O)CN(C)C(=O)[C@H](COCCC(C)C)N(C)C(=O)[C@@H]2CCN2C(=O)[C@H](C)N(C)C1=O [Compound 470] ([NMeL]I[NMeA][Aze][NMeS](Isopentyl)[Sar][hPhe(3-Cl-4-CF3)]P[Ac5c][NMeV][NMeD]-Piperidide; lactam N-11) | 0.1 to 0.5
CC[C@H](C)[C@@H]1NC(=O)[C@H](CC(C)C)N(CC)C(=O)C[C@@H](C(=O)N2CCOCC2)N(C)C(=O)[C@H](C2CCCC2)N(C)C(=O)C2(CCCC2)NC(=O)[C@@H]2CCCN2C(=O)[C@H](CCc2ccc(C(F)(F)F)c(Cl)c2)NC(=O)CN(C)C(=O)[C@H](C2CCCC2)N(C)C(=O)[C@@H]2CCN2C(=O)[C@H](C)NC1=O [Compound 1140] ([NEtLeu]IA[Aze][NMeGly(cPent)][Sar][hPhe(3-Cl-4-CF3)]P[Ac5c][NMeGly(cPent)][NMeD]-Morpholide; lactam N-11) | 0.1 to 0.5
CC[C@H](C)[C@@H]1NC(=O)[C@H](CC(C)C)N(C)C(=O)C[C@@H](C(=O)N(C)C)N(C)C(=O)[C@H](C2CCCC2)N(C)C(=O)C2(CCCC2)NC(=O)[C@@H]2CCCN2C(=O)[C@H](CCc2ccc(C(F)(F)F)c(F)c2)NC(=O)CN(C)C(=O)[C@H](CC2CCCCC2)N(C)C(=O)[C@@H]2CCN2C(=O)[C@H](C)NC1=O [Compound 1164] ([NMeL]IA[Aze][NMeCha][Sar][hPhe(3-F,4-CF3)]P[Ac5c][NMeGly(cPent)][NMeD]-NMe2; lactam N-11) | 0.02 to 0.05
CC[C@H](C)[C@@H]1NC(=O)[C@H](CC(C)C)N(C)C(=O)C[C@@H](C(=O)N2CCCCC2)N(C)C(=O)[C@H](C2CCCCC2)N(C)C(=O)C2(CCCC2)NC(=O)[C@H](CCOC)N(C)C(=O)[C@H](CCc2ccc(C(F)(F)F)c(Cl)c2)NC(=O)CN(C)C(=O)[C@H](CC2CCCCC2)N(C)C(=O)CN(C)C(=O)CN(C)C1=O [Compound 2168] ([NMeL]I[Sar][Sar][NMeCha][Sar][hPhe(3-Cl-4-CF3)][NMehSer](Me)[Ac5c][NMeChg][NMeD]-Piperidide; lactam N-11) | 0.1 to 0.5

Source: patent US12371454B2, “Cyclic peptide compound having Kras inhibitory action” (priority 2019, dated 2025)
